# Source: the supplement of paper PMC10307832
# Columns and labels:
# Test in all cases: relative viability (nuclei count vs DMSO), 5 days (fraction); higher = more cells survive
# HCC-366 = test system: HCC-366
# Summary of the method: (§1)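 Relative viability divides the nuclei count in treated wells by that in vehicle wells. Lung cancer cell lines were seeded in 1536-well plates, dosed by pin tool the next day, and fixed and stained after 5 days in one step with final 0.05% Triton X-100, 1% formaldehyde and 1 ug/ml Hoechst. Dosing was a single drug or a fixed anchor-drug dose plus five library-drug doses (not always all listed) in √10 steps, and values are medians of duplicate plates imaged at 4×.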
# NCI-H2126 = test system: NCI-H2126
# Summary of the method: as §1
# NCI-H1993 = test system: NCI-H1993
# Summary of the method: as §1
# NCI-H441 = test system: NCI-H441
# Summary of the method: as §1
# HARA = test system: HARA
# Summary of the method: as §1
# LCLC-103H = test system: LCLC-103H
# Summary of the method: as §1
# NCI-H650 = test system: NCI-H650
# Summary of the method: as §1
# NCI-H1734 = test system: NCI-H1734
# Summary of the method: as §1
# SW 1573 = test system: SW 1573
# Summary of the method: as §1
# 201T = test system: 201T
# Summary of the method: as §1
# NCI-H460 = test system: NCI-H460
# Summary of the method: as §1
# LCLC-97TM1 = test system: LCLC-97TM1
# Summary of the method: as §1
# HCC-15 = test system: HCC-15
# Summary of the method: as §1
# NCI-H2009 = test system: NCI-H2009
# Summary of the method: as §1
# NCI-H2023 = test system: NCI-H2023
# Summary of the method: as §1
# RERF-LC-KJ = test system: RERF-LC-KJ
# Summary of the method: as §1
# LOU-NH91 = test system: LOU-NH91
# Summary of the method: as §1
# HCC-78 = test system: HCC-78
# Summary of the method: as §1
# COR-L23 = test system: COR-L23
# Summary of the method: as §1
# A-427 = test system: A-427
# Summary of the method: as §1
# HCC-44 = test system: HCC-44
# Summary of the method: as §1
smiles,measurement,setting,value
Cc1cnc(-c2cnc(NCCNc3ccc(C#N)cn3)nc2-c2ccc(Cl)cc2Cl)[nH]1 + Cc1nc(NC(=O)N2CCC[C@H]2C(N)=O)sc1-c1ccnc(C(C)(C)C(F)(F)F)c1 [Alpelisib] (partner 2 µM),relative viability,HCC-366; first compound 0.08 µM,0.369
same,relative viability,HCC-366; first compound 0.253 µM,0.364
same,relative viability,HCC-366; first compound 0.8 µM,0.33
same,relative viability,HCC-366; first compound 2.53 µM,0.32
same,relative viability,NCI-H2126; first compound 0.08 µM,0.725
same,relative viability,NCI-H2126; first compound 0.253 µM,0.756
same,relative viability,NCI-H2126; first compound 0.8 µM,0.669
same,relative viability,NCI-H2126; first compound 2.53 µM,0.766
same,relative viability,NCI-H1993; first compound 0.08 µM,0.715
same,relative viability,NCI-H1993; first compound 0.253 µM,0.72
same,relative viability,NCI-H1993; first compound 0.8 µM,0.683
same,relative viability,NCI-H1993; first compound 2.53 µM,0.694
same,relative viability,NCI-H441; first compound 0.08 µM,0.759
same,relative viability,NCI-H441; first compound 0.253 µM,0.668
same,relative viability,NCI-H441; first compound 0.8 µM,0.858
same,relative viability,NCI-H441; first compound 2.53 µM,0.7
same,relative viability,HARA; first compound 0.08 µM,0.994
same,relative viability,HARA; first compound 0.253 µM,0.673
same,relative viability,HARA; first compound 0.8 µM,0.746
same,relative viability,HARA; first compound 2.53 µM,0.827
same,relative viability,LCLC-103H; first compound 0.08 µM,1.16
same,relative viability,LCLC-103H; first compound 0.253 µM,0.958
same,relative viability,LCLC-103H; first compound 0.8 µM,1.07
same,relative viability,LCLC-103H; first compound 2.53 µM,0.951
same,relative viability,NCI-H650; first compound 0.08 µM,1.07
same,relative viability,NCI-H650; first compound 0.253 µM,1.06
same,relative viability,NCI-H650; first compound 0.8 µM,1.17
same,relative viability,NCI-H650; first compound 2.53 µM,1.11
same,relative viability,NCI-H1734; first compound 0.08 µM,0.766
same,relative viability,NCI-H1734; first compound 0.253 µM,0.673
same,relative viability,NCI-H1734; first compound 0.8 µM,0.656
same,relative viability,NCI-H1734; first compound 2.53 µM,0.633
same,relative viability,SW 1573; first compound 0.08 µM,0.822
same,relative viability,SW 1573; first compound 0.253 µM,0.765
same,relative viability,SW 1573; first compound 0.8 µM,0.748
same,relative viability,SW 1573; first compound 2.53 µM,0.515
same,relative viability,201T; first compound 0.08 µM,1.07
same,relative viability,201T; first compound 0.253 µM,0.959
same,relative viability,201T; first compound 0.8 µM,1.01
same,relative viability,201T; first compound 2.53 µM,1.02
same,relative viability,NCI-H460; first compound 0.08 µM,0.552
same,relative viability,NCI-H460; first compound 0.253 µM,0.475
same,relative viability,NCI-H460; first compound 0.8 µM,0.61
same,relative viability,NCI-H460; first compound 2.53 µM,0.68
same,relative viability,LCLC-97TM1; first compound 0.08 µM,0.28
same,relative viability,LCLC-97TM1; first compound 0.253 µM,0.176
same,relative viability,LCLC-97TM1; first compound 0.8 µM,0.251
same,relative viability,LCLC-97TM1; first compound 2.53 µM,0.323
same,relative viability,HCC-15; first compound 0.08 µM,0.857
same,relative viability,HCC-15; first compound 0.253 µM,0.815
same,relative viability,HCC-15; first compound 0.8 µM,0.853
same,relative viability,HCC-15; first compound 2.53 µM,0.881
same,relative viability,NCI-H2009; first compound 0.08 µM,1.13
same,relative viability,NCI-H2009; first compound 0.253 µM,1.14
same,relative viability,NCI-H2009; first compound 0.8 µM,1.26
same,relative viability,NCI-H2009; first compound 2.53 µM,1.05
same,relative viability,NCI-H2023; first compound 0.08 µM,0.574
same,relative viability,NCI-H2023; first compound 0.253 µM,0.656
same,relative viability,NCI-H2023; first compound 0.8 µM,0.747
same,relative viability,NCI-H2023; first compound 2.53 µM,1.12
same,relative viability,RERF-LC-KJ; first compound 0.08 µM,0.984
same,relative viability,RERF-LC-KJ; first compound 0.253 µM,0.746
same,relative viability,RERF-LC-KJ; first compound 0.8 µM,0.775
same,relative viability,RERF-LC-KJ; first compound 2.53 µM,0.916
same,relative viability,LOU-NH91; first compound 0.08 µM,0.852
same,relative viability,LOU-NH91; first compound 0.253 µM,0.729
same,relative viability,LOU-NH91; first compound 0.8 µM,0.675
same,relative viability,LOU-NH91; first compound 2.53 µM,0.715
same,relative viability,HCC-78; first compound 0.08 µM,0.401
same,relative viability,HCC-78; first compound 0.253 µM,0.285
same,relative viability,HCC-78; first compound 0.8 µM,0.308
same,relative viability,HCC-78; first compound 2.53 µM,0.333
same,relative viability,COR-L23; first compound 0.08 µM,0.918
same,relative viability,COR-L23; first compound 0.253 µM,0.649
same,relative viability,COR-L23; first compound 0.8 µM,0.826
same,relative viability,COR-L23; first compound 2.53 µM,0.774
same,relative viability,A-427; first compound 0.08 µM,1.1
same,relative viability,A-427; first compound 0.253 µM,1.05
same,relative viability,A-427; first compound 0.8 µM,1.07
same,relative viability,A-427; first compound 2.53 µM,1.06
same,relative viability,HCC-44; first compound 0.08 µM,0.853
same,relative viability,HCC-44; first compound 0.253 µM,0.768
same,relative viability,HCC-44; first compound 0.8 µM,0.823
same,relative viability,HCC-44; first compound 2.53 µM,0.926
